Assay results from patent EP3970691A1, “SLIMMING COSMETIC COMPOSITIONS CONTAINING ONE OR MORE LIMONOIDS” (C.F.E.B. Sisley, priority 2020, dated 2022).

What was measured:
Type in all cases: cell-based
pré-adipocytes humains = assay: RT-qPCR gene expression in differentiating human pre-adipocytes; conditions: treated during induction phase
Description: Comme pour les 3T3-L1, le protocole de différenciation des PrAH se déroule en deux étapes : les cellules sont exposées à milieu d'induction puis à un milieu d'accumulation, ces deux phases durant 10 jours chacune.
Le milieu d'induction est composé du milieu d'entretien supplémenté de l'insuline à 1µM, de l'IBMX à 500µM, de la dexaméthasone à 1µM ainsi que de l'indométhacine à 200µM. Le milieu d'accumulation est quant à lui composé du milieu d'entretien auquel on ajoute de l'insuline à 1µM.
(§1) L'extraction des ARNm à partir de ces échantillons est réalisée avec un kit RNeasy® Mini Kit, commercialisé par QIAGEN®.
(§2) La rétrotranscription des ARN extraits des échantillons en ADNc est réalisée selon le protocole suivant : les ARN sont incubés à 50°C pendant 30 minutes afin de réaliser la rétro-transcription des ARN en présence de la réversetranscriptase M-MLV; puis à 95°C pendant 15 minutes afin d'inhiber l'activité de la rétrotranscriptase, de dégrader les amorces d'ARN et d'activer la polymérase.
(§3) La PCR quantitative est réalisée dans Le LightCylcer 1.5 (Roche) grâce au kit FastStart DNA Master plus SYBR Green I (Roche).
Dans un premier temps, les cellules ont donc été traitées avec de la Gédunine durant la phase d'induction. Le niveau d'expression de gènes impliqués dans l'adipogenèse et dans la fonction adipocytaire a été évalué. Dans un deuxième temps, les cellules ont été colorées avec de l'Huile Rouge afin de visualiser leur capacité à stocker des lipides au sein de leurs gouttelettes lipidiques.

3T3-L1 [1] = assay: Oil Red staining of lipid droplets in 3T3-L1 (microscopy); conditions: AdJ7, 10µM in induction (GED1) or accumulation (GED2) phase
Excerpt: Afin de visualiser les gouttelettes lipidiques contenues dans les adipocytes matures et donc de quantifier le niveau de différenciation des cellules, les lipides sont marqués avec de l'huile rouge. L'huile rouge est un colorant liposoluble qui colore les lipides neutres et donc les triglycérides stockés dans les gouttelettes.
(§4) L'inhibition de CERT, et donc de la synthèse de SM, par le traitement à la GED ayant été validée, la question a donc ensuite été de savoir si cela avait un effet sur la capacité de différenciation des cellules. Le même protocole de différenciation a donc été appliqué, associé ou non à un traitement à la Ged (figure 2A), et les niveaux d'expression de gènes impliqués d'une part dans l'adipogenèse et d'autre part dans la fonction adipocytaire ont été mesurés. Par ailleurs, les analyses transcriptomiques ont été combinées avec une analyse phénotypique des échantillons : un marquage à l'huile rouge, qui, en marquant les lipides, permet de visualiser les gouttelettes lipidiques dans les cellules et donc de savoir si celles-ci sont différenciées et fonctionnelles.

CERT [2] = biological target: T1, CERT (Mus musculus, UniProt Q9EQG9); assay: Dose-response on basal 3T3-L1: total ceramide assay (DAG kinase) as readout of CERT inhibition; conditions: 3T3-L1 in basal state, total ceramides; data not shown
T1 construct: endogenous in cells; host or cells: 3T3-L1
T1 sequence (Q9EQG9 1-624): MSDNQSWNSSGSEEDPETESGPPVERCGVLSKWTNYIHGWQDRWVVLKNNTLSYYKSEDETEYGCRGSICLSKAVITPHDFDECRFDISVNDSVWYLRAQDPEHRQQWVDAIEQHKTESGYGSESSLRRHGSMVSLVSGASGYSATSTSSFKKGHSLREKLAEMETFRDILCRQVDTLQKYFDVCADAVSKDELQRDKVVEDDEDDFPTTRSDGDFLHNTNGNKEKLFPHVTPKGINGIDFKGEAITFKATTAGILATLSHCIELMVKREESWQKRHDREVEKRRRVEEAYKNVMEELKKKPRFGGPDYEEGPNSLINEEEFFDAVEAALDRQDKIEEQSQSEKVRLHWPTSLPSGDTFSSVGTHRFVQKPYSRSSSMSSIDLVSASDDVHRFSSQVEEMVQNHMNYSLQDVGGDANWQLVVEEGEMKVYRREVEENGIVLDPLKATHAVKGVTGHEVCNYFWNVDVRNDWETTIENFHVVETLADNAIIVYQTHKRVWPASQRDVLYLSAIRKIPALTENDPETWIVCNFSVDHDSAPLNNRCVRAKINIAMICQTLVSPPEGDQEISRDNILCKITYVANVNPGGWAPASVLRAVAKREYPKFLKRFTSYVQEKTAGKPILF
Excerpt: (§5) Les taux de céramides dans les extraits de lipides cellulaires sont mesurés par la méthode enzymatique de la DAG kinase. Le principe de ce dosage est de phosphoryler les céramides avec de l'ATP radiomarqué grâce à l'action de cette enzyme, puis de quantifier les radiations obtenues pour chaque échantillons, permettant ainsi de doser la quantité totale de céramides présents initialement dans les échantillons. Les résultats sont exprimés en fmol de céramides et normalisés par rapport à la quantité de phospholipides totaux dans les échantillons, exprimée en nmol.
(§6) La quantité de phospholipides totaux contenue dans les extraits cellulaires est dosée afin de normaliser les céramides présents dans chaque échantillon. La quantité de phospholipides totaux est mesurée par spectrophotométrie : l'absorbance est mesurée à 660 nm, puis calculée grâce à une gamme de sodium phosphate dibasique (Sigma-Aldrich) permettant de déterminer la concentration en phosphates dans chaque échantillon.

3T3-L1 [3] = assay: RT-qPCR expression of adipogenesis and adipocyte function genes during 3T3-L1 differentiation
Description: (§7) Le protocole de différenciation se déroule en deux étapes : une phase d'induction (2 jours) suivie d'une étape d'accumulation (2 à 5 jours). • Milieu d'induction : Il s'agit du milieu d'entretien des 3T3-L1 supplémenté de 1µM d'Insuline; 1.25µM de Dexaméthasone et 250µM d' IBMX (3-isobutyl-1-methylxanthine) • Cocktail d'accumulation : Ce milieu est composé du milieu d'entretien des 3T3-L1 supplémenté de 1µM d'Insuline ;
as §1, §2, §3, §4
Les niveaux d'expression des gènes Pref1, comme marqueur pré-adipocytaire, ainsi que de PPARγ, C/EBPα et C/EBPδ qui sont des FT clés dans l'adipogenèse, ont été mesurés.

CERT [4] = biological target: T1, CERT; assay: Total ceramides and sphingomyelins during 3T3-L1 differentiation under gedunin treatment
Description: as §7
Les lipides ont été extraits et les échantillons préparés pour la chromatographie liquide couplée à la spectrométrie de masse (cf. Bligh E.G. et al, 1959).
as §5, §6
Afin de déterminer si la GED est capable d'inhiber le transport des céramides du RE vers le Golgi au cours du processus de différenciation des 3T3-L1, ces cellules ont été mises en contact de la GED au cours des deux phases du protocole (Schéma 3). Puis les céramides totaux et les sphingomyélines ont été quantifiés (figure 2A).

3T3-L1 [5] = assay: Oil Red O neutral lipid quantification (spectrophotometry) in differentiating 3T3-L1; conditions: for quantité de lipides: vs control
Excerpt: Brièvement : Des cellules 3T3-L1 ont été ensemencés dans leur milieu d'entretien. A confluence, les cellules ont été mises au contact des produits à tester dans un milieu permettant la différentiation des pré-adipocytes en adipocytes via la présence d'un cocktail d'induction. A l'issue du contact, les lipides neutres stockés dans les gouttelettes lipidiques des adipocytes ont été marqués par la coloration Huile Rouge O. Les lipides neutres ont été extraits (extraction à l'isopropanol) et dosés par spectrophotométrie. Les densités optiques obtenues sont proportionnelles à la quantité de lipides.

[6] = GED1 and GED2, stage AdJ7, vs CTRL

SMILES: CC(=O)O[C@@H]1C[C@H]2C(C)(C)C(=O)C=C[C@]2(C)[C@H]2CC[C@@]3(C)[C@H](c4ccoc4)OC(=O)[C@H]4O[C@]43[C@@]21C [Gédunine, gédunine]
- expression du marqueur pré-adipocytaire Pref1 (pré-adipocytes humains; CTRL vs GED): aucune différence significative
- expressions de AdipoQ, FAS et LPL (pré-adipocytes humains; vs CTRL): diminution des expressions de AdipoQ, FAS et LPL
- induction de l'expression de PPARγ (pré-adipocytes humains; vs CTRL): fortement diminuée
- marquage des lipides neutres par l'huile rouge (3T3-L1 [1]): ne sont plus marquées
- dose de GED à partir de laquelle les céramides commencent à s'accumuler (CERT [2]): ≥ 10 µM
- expression de PPARγ (3T3-L1 [3]; 10µM in accumulation phase): diminution drastique de l'induction de l'expression de PPARγ
- expression de CD36, FAS, LPL et adiponectine (3T3-L1 [3]; 10µM in induction or accumulation phase, stages AdJ2 and AdJ7): diminue l'induction de l'expression de ces 4 gènes
- expression de PPARγ (3T3-L1 [3]; 10µM in induction phase, stages AdJ2 and AdJ7): diminution de cette induction de l'expression de PPARγ
- expression de C/EBPδ (3T3-L1 [3]; 10µM, stage AdJ2): semble diminuer, toutefois non-significativement
- expression de CD36, FAS, LPL et adiponectine (3T3-L1 [3]; AdJ7 GED2 (10µM in accumulation phase)): diminution drastique
- expression de Pref1 (3T3-L1 [3]; GED1 (10µM in induction phase), stage AdJ2): diminue de la même manière que chez les CTRL
- expression de Pref1 (3T3-L1 [3]; GED1 (10µM in induction phase), stage AdJ7): n'est plus réprimé
- expression de C/EBPα (3T3-L1 [3]; [6]): diminuée
- niveau d'expression de C/EBPδ (3T3-L1 [3]; [6]): significativement augmenté
- expression de Pref1 (3T3-L1 [3]; GED2 (10µM in accumulation phase), stage AdJ7): identique à celle des CTRL
- céramides totaux (CERT [4]; 3T3-L1, 10µM in induction phase, then control accumulation medium without GED): ne présentent pas d'accumulation des céramides
- céramides totaux (CERT [4]; 3T3-L1, 10µM, AdJ2 treated in induction phase and AdJ7 treated in accumulation phase, vs control): accumulation des céramides significative
- accumulation de SM (CERT [4]; 3T3-L1, 10µM, after 5 days of accumulation, treatment in first or second step): diminuer significativement l'accumulation de SM
- quantité de SM (CERT [4]; 3T3-L1, 10µM, early stage, just before accumulation step): légère diminution de la quantité de SM, toutefois non significative

SMILES: CC1(C)O[C@H]2CC(=O)OC[C@]23[C@H]2CC[C@@]4(C)[C@H](c5ccoc5)OC(=O)[C@H]5O[C@]54[C@]2(C)C(=O)C[C@@H]13 [Limonine, limonine]
- % variation versus contrôle (3T3-L1 [5]; Limonine 10µM): -10%
- Moyenne ± écart type (Densité optique à 490nm) (3T3-L1 [5]; Limonine 10µM): 0,492 ± 0,061
- % variation versus contrôle (3T3-L1 [5]; Limonine 2OµM): -16,5%
- Moyenne ± écart type (Densité optique à 490nm) (3T3-L1 [5]; Limonine 2OµM): 0,455 ± 0,037
- cytotoxicité (3T3-L1 [5]; limonin experiment, tested concentrations (10 and 20 µM)): Aucune cytotoxicité
- quantité de lipides (3T3-L1 [5]; limonin experiment): baisse dose dépendante de la quantité de lipides
- quantité de lipides (3T3-L1 [5]; mandarin extract experiment): baisse dose dépendante de la quantité de lipides
